Reference: patent US20250215029A1 (Recludix Pharma, Inc., priority 2022, published 2025)

Legend:
[1] = target: T1, Recombinant STAT3 protein (STAT3 (G127-I722)) (Homo sapiens, UniProt P40763); assay: STAT3 Fluorescence Polarization (FP) Assay; assay type: binding; conditions: STAT3 (G127-I722) 25 nM, probe 5-FAM-GpYLPQTV-NH2 2 nM, 45-minute incubation; read-out: STAT3 (FP assay IC50 class)
T1 construct: Recombinant STAT3 protein (STAT3 (G127-I722))
Outline: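 Displacement of a 2 nM 5-FAM-labelled pY peptide (GpYLPQTV) from 25 nM recombinant STAT3 (G127-I722) was monitored by fluorescence polarization. Incubation lasted 45 min at room temperature in pH 7.4 HEPES buffer containing 1% DMSO.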

[2] = target: T2, Recombinant STAT6 protein (STAT6 (W123-T658)) (Homo sapiens, UniProt P42226); assay: STAT6 Fluorescence Polarization (FP) Assay; assay type: binding; conditions: STAT6 (W123-T658) 250 nM, probe 5-FAM-Ap[…]-NH2 2 nM, 45-minute incubation; read-out: STAT6 (FP assay IC50 class)
T2 construct: Recombinant STAT6 protein (STAT6 (W123-T658))
T2 sequence (P42226 123-658): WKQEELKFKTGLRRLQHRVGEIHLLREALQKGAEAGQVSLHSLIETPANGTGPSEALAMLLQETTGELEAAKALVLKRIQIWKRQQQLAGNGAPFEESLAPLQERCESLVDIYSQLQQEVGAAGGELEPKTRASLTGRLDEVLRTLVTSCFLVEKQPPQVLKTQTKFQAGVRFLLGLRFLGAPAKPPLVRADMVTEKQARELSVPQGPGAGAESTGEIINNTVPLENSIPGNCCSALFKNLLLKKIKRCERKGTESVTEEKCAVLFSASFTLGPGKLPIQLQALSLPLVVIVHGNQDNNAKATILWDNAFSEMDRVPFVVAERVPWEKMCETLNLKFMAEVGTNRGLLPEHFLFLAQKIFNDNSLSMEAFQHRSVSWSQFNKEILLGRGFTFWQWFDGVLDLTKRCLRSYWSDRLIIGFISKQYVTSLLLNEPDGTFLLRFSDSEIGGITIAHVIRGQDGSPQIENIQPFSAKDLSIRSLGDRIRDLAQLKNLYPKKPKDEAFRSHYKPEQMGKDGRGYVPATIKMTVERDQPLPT
Outline: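 Serially diluted compounds received a premix of STAT6 (W123-T658, 250 nM) and 5-FAM peptide probe (2 nM) in pH 7.4 HEPES buffer containing DTT and Tween 20. Following 45 min at room temperature, FP was recorded. IC50s were fitted by nonlinear regression; values are binned A (≤300 nM), B (>300-3000 nM), C (>3-30 μM), D (>30 μM).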

T1 sequence (P40763 127-722): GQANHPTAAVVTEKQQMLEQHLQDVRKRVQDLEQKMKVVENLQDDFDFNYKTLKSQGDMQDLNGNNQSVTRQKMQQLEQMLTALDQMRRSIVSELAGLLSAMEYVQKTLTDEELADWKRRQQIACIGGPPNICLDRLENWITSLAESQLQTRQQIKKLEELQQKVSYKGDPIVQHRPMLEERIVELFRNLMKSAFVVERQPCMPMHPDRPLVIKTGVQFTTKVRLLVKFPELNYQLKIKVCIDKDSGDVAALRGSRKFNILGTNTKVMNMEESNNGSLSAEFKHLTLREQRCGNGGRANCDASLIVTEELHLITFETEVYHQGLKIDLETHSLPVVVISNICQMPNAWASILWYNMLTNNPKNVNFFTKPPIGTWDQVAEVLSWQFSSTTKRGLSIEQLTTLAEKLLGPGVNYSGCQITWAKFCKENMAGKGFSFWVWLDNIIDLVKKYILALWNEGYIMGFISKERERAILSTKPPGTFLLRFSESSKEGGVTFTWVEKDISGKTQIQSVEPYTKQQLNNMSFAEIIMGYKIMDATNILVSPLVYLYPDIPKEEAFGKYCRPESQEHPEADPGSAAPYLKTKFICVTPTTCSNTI

## Cc1ccncc1C1CN(C(=O)[C@@H]2CC[C@@H]3CCC[C@H](NC(=O)c4cc5cc(CP(=O)(O)O)ccc5s4)C(=O)N32)C1 [Compound 214, ((2-(((3S,6S,9aS)-3-(3-(4-methylpyridin-3-yl)azetidine-1-carbonyl)-5-oxooctahydro-1H-pyrrolo[1,2-a]azepin-6-yl)carbamoyl)benzo[b]thiophen-5-yl)methyl)phosphonic acid]
[1]
  IC50: 0.1 to 1 µM
[2]
  IC50: 3 to 30 µM

## COC1(c2nccn2C)CN(C(=O)[C@@H]2CC[C@@H]3CCC4(CC4)C[C@H](NC(=O)c4ccc5ccc(C(F)(F)P(=O)(O)O)cc5c4)C(=O)N32)C1 [Compound 215, (difluoro(7-(((3′S,6′S,10a′S)-3′-(3-methoxy-3-(1-methyl-1H-imidazol-2-yl)azetidine-1-carbonyl)-5′-oxooctahydro-5′H-spiro[cyclopropane-1,8′-pyrrolo[1,2-a]azocin]-6′-yl)carbamoyl)naphthalen-2-yl)methyl)phosphonic acid]
[1]
  IC50: 1 to 10 µM
[2]
  IC50: 3 to 30 µM

## O=C(N[C@H]1CC2(CC[C@H]3CC[C@@H](C(=O)N4CC(c5cccnc5)C4)N3C1=O)CC2)c1cc2cc(CP(=O)(O)O)ccc2s1 [Compound 216, ((2-(((3′S,6′S,10a′S)-5′-oxo-3′-(3-(pyridin-3-yl)azetidine-1-carbonyl)octahydro-5′H-spiro[cyclopropane-1,8′-pyrrolo[1,2-a]azocin]-6′-yl)carbamoyl)benzo[b]thiophen-5-yl)methyl)phosphonic acid]
[1]
  IC50: 0.1 to 1 µM
[2]
  IC50: 3 to 30 µM

## O=C(N[C@H]1CCCC[C@H]2CC[C@@H](C(=O)N3CCC(c4cccnc4)C3)N2C1=O)c1ccc2ccc(CP(=O)(O)O)cc2c1 (stereo partly drawn) [Compound 217, ((7-(((3S,6S,10aS)-5-oxo-3-(3-(pyridin-3-yl)pyrrolidine-1-carbonyl)decahydropyrrolo[1,2-a]azocin-6-yl)carbamoyl)naphthalen-2-yl)methyl)phosphonic acid]
[1]
  IC50: 1 to 10 µM
[2]
  IC50: 3 to 30 µM

## O=C(N[C@H]1CCCC[C@H]2CC[C@@H](C(=O)N3CCC(c4cccnc4)C3)N2C1=O)c1ccc2ccc(C(F)(F)P(=O)(O)O)cc2c1 (stereo partly drawn) [Compound 218, (difluoro(7-(((3S,6S,10aS)-5-oxo-3-(3-(pyridin-3-yl)pyrrolidine-1-carbonyl)decahydropyrrolo[1,2-a]azocin-6-yl)carbamoyl)naphthalen-2-yl)methyl)phosphonic acid]
[1]
  IC50: 0.1 to 1 µM
[2]
  IC50: ≤ 0.3 µM

## CC(=O)N1C[C@H](NC(=O)[C@@H]2CC[C@@H]3CCC[C@H](NC(=O)c4cc5cc(CP(=O)(O)O)ccc5s4)C(=O)N32)[C@@H](F)C1 [Compound 219, ((2-(((3S,6S,9aS)-3-(((3S,4S)-1-acetyl-4-fluoropyrrolidin-3-yl)carbamoyl)-5-oxooctahydro-1H-pyrrolo[1,2-a]azepin-6-yl)carbamoyl)benzo[b]thiophen-5-yl)methyl)phosphonic acid]
[1]
  IC50: 1 to 10 µM
[2]
  IC50: 3 to 30 µM

## CC(F)(c1ccc2sc(C(=O)N[C@H]3CCC[C@H]4CC[C@@H](C(=O)N5CC(c6cccnc6)C5)N4C3=O)cc2c1)P(=O)(O)O (stereo partly drawn) [Compound 221, (1-fluoro-1-(2-(((3S,6S,9aS)-5-oxo-3-(3-(pyridin-3-yl)azetidine-1-carbonyl)octahydro-1H-pyrrolo[1,2-a]azepin-6-yl)carbamoyl)benzo[b]thiophen-5-yl)ethyl)phosphonic acid]
[1]
  IC50: < 0.1 µM
[2]
  IC50: 3 to 30 µM

## CC(F)(c1ccc2sc(C(=O)N[C@H]3CCCC[C@H]4CC[C@@H](C(=O)N5CCC(c6cccnc6)C5)N4C3=O)cc2c1)P(=O)(O)O (stereo partly drawn) [Compound 222, (1-fluoro-1-(2-(((3S,6S,10aS)-5-oxo-3-(3-(pyridin-3-yl)pyrrolidine-1-carbonyl)decahydropyrrolo[1,2-a]azocin-6-yl)carbamoyl)benzo[b]thiophen-5-yl)ethyl)phosphonic acid]
[1]
  IC50: 0.1 to 1 µM
[2]
  IC50: 0.3 to 3 µM

## O=C(N[C@H]1CCCC[C@H]2CC[C@@H](C(=O)N3CCC(c4cccnc4)C3)N2C1=O)c1cc2cc(C(F)P(=O)(O)O)ccc2s1 (stereo partly drawn) [Compound 223, (fluoro(2-(((3S,6S,10aS)-5-oxo-3-(3-(pyridin-3-yl)pyrrolidine-1-carbonyl)decahydropyrrolo[1,2-a]azocin-6-yl)carbamoyl)benzo[b]thiophen-5-yl)methyl)phosphonic acid]
[1]
  IC50: 0.1 to 1 µM
[2]
  IC50: 0.3 to 3 µM

## O=C(N[C@@H]1C(=O)N2[C@@H](CCC[C@H]1C1CC1)CC[C@H]2C(=O)N1CC(c2cccnc2)C1)c1cc2cc(C(F)(F)P(=O)(O)O)ccc2s1 [Compound 233, ((2-(((3S,6S,7S,10aS)-7-cyclopropyl-5-oxo-3-(3-(pyridin-3-yl)azetidine-1-carbonyl)decahydropyrrolo[1,2-a]azocin-6-yl)carbamoyl)benzo[b]thiophen-5-yl)difluoromethyl)phosphonic acid]
[1]
  IC50: < 0.1 µM
[2]
  IC50: 3 to 30 µM

## COc1ccncc1C1CN(C(=O)[C@@H]2CC[C@@H]3CCCC[C@H](NC(=O)c4cc5cc(C(F)P(=O)(O)O)ccc5s4)C(=O)N32)C1 (stereo partly drawn) [Compound 236, (fluoro(2-(((3S,6S,10aS)-3-(3-(4-methoxypyridin-3-yl)azetidine-1-carbonyl)-5-oxodecahydropyrrolo[1,2-a]azocin-6-yl)carbamoyl)benzo[b]thiophen-5-yl)methyl)phosphonic acid]
[1]
  IC50: < 0.1 µM
[2]
  IC50: 3 to 30 µM

## CCC[C@@H]1CC[C@H](NC(=O)c2cc3cc(C(F)P(=O)(O)O)ccc3s2)C(=O)N2[C@H](CC[C@H]2C(=O)N2CC(c3cnccc3OC)C2)C1 (stereo partly drawn) [Compound 241, (fluoro(2-(((3S,6S,9R,10aR)-3-(3-(4-methoxypyridin-3-yl)azetidine-1-carbonyl)-5-oxo-9-propyldecahydropyrrolo[1,2-a]azocin-6-yl)carbamoyl)benzo[b]thiophen-5-yl)methyl)phosphonic acid]
[1]
  IC50: < 0.1 µM
[2]
  IC50: 3 to 30 µM

## O=C(N[C@H]1CCCC[C@H]2CC[C@@H](C(=O)N3C[C@@H](c4cccnc4)CC34CC4)N2C1=O)c1cc2cc(CP(=O)(O)O)ccc2s1 [Compound 244, ((2-(((3S,6S,10aS)-5-ox0-3-((R)-6-(pyridin-3-yl)-4-azaspiro[2.4]heptane-4-carbonyl)decahydropyrrolo[1,2-a]azocin-6-yl)carbamoyl)benzo[b]thiophen-5-yl)methyl)phosphonic acid]
[1]
  IC50: 1 to 10 µM
[2]
  IC50: 0.3 to 3 µM

## CC[C@H]1CC[C@H](NC(=O)c2cc3cc(C(F)P(=O)(O)O)ccc3s2)C(=O)N2[C@H](CC[C@H]2C(=O)N2CC(c3cnccc3OC)C2)C1 (stereo partly drawn) [Compound 245, ((2-(((3S,6S,9S,10aR)-9-ethyl-3-(3-(4-methoxypyridin-3-yl)azetidine-1-carbonyl)-5-oxodecahydropyrrolo[1,2-a]azocin-6-yl)carbamoyl)benzo[b]thiophen-5-yl)fluoromethyl)phosphonic acid]
[1]
  IC50: < 0.1 µM
[2]
  IC50: 3 to 30 µM

## COc1ccncc1C1CN(C(=O)[C@@H]2CC[C@@H]3C[C@@H](C(C)C)CC[C@H](NC(=O)c4cc5cc(C(F)P(=O)(O)O)ccc5s4)C(=O)N32)C1 (stereo partly drawn) [Compound 246, (fluoro(2-(((3S,6S,9S,10aR)-9-isopropyl-3-(3-(4-methoxypyridin-3-yl)azetidine-1-carbonyl)-5-oxodecahydropyrrolo[1,2-a]azocin-6-yl)carbamoyl)benzo[b]thiophen-5-yl)methyl)phosphonic acid]
[1]
  IC50: < 0.1 µM
[2]
  IC50: 3 to 30 µM

## CCC[C@H]1CC[C@H](NC(=O)c2cc3cc(C(F)P(=O)(O)O)ccc3s2)C(=O)N2[C@H](CC[C@H]2C(=O)N2CC(c3cnccc3OC)C2)C1 (stereo partly drawn) [Compound 247, (fluoro(2-(((3S,6S,9S,10aR)-3-(3-(4-methoxypyridin-3-yl)azetidine-1-carbonyl)-5-oxo-9-propyldecahydropyrrolo[1,2-a]azocin-6-yl)carbamoyl)benzo[b]thiophen-5-yl)methyl)phosphonic acid]
[1]
  IC50: < 0.1 µM
[2]
  IC50: 3 to 30 µM

## CC(O)C1(c2ccccc2)CN(C(=O)[C@@H]2CC[C@@H]3CCCC[C@H](NC(=O)c4cc5cc(C(F)(F)P(=O)(O)O)ccc5s4)C(=O)N32)C1 (stereo partly drawn) [Compound 495, (difluoro(2-(((3S,6S,10aS)-3-(3-(1-hydroxyethyl)-3-phenylazetidine-1-carbonyl)-5-oxodecahydropyrrolo[1,2-a]azocin-6-yl)carbamoyl)benzo[b]thiophen-5-yl)methyl)phosphonic acid]
[1]
  IC50: 0.1 to 1 µM
[2]
  IC50: 3 to 30 µM
